Several values for one entry are separate records, joined by “and”; a condition that tells them apart may be missing. Equal entries are not always repeated. Entries after “also recorded” stand apart in the source; their conditions may differ. Where two headings read alike, the source gives them in different places. Ends that are not written are not given here.
B1: mdfimlaaaivkesfiflligllaaILLSLEIFERKFSRSVWYYGFPAFSERTRKFWRIWKGK TS (peptide, listed as Solanum lycopersicum)
chain: MDFIMLAAAIVKESFIFLLIGLLAAILLSLEIFERKFSRSVWYYGFPAFSERTRKFWRIWKGKTS
notes: peptide of 65 amino acid residues from tomato xylem sap

How the values were obtained:
Pyricularia oryzae = type: cell-based; details: for Plate antimicrobial activity test Pyricularia oryzae (level): 25° C., 1 day or 2 days
Fusarium oxysporum = type: cell-based
[1] = system: Colletotrichum orbiculare; type: cell-based; details: for Plate antimicrobial activity test Collectotrichum orbiculare (level): 25° C., 1 day or 2 days
Botrytis cinerea [2] = assay: Botrytis cinerea leaf inoculation test (tomato leaf); type: in vivo; details: for Leaf inoculation test Tomato/Botrytis cinerea: peptide 100 μM, 2 days, lesions by visual inspection; for inhibitory effects against Botrytis cinerea (in words): tomato leaf inoculation test, not shown in the figures
Method: In the present example, a suspension comprising Botrytis cinerea and a peptide to be tested was dropped on a plant leaf, and lesions were then observed by visual inspection to evaluate the antimicrobial activity of the tested peptide. First, the pores of Botrytis cinerea were suspended in a potato dextrose broth (PDB) to result in a spore concentration of 5×10^5 spores/ml, so as to prepare a PDB suspension spore solution. Subsequently, a peptide to be tested (TsORF18-2) was added to the PDB suspension spore solution, so that the final concentration of the peptide to be tested became 0 μM, 1 μM, 10 μM or 100 μM. It is to be noted that, as peptides to be tested, TsORF18 (full length) and TsORF18-40 a.a. were also used in the same manner as that of TsORF18-2. TsORF18 (full length) was dissolved in DMSO and was then used. On the other hand, TsORF18-2 and TsORF18-40 a.a were each dissolved in Milli-Q water and were then used. Thereafter, 10 μl each of the PDB suspension spore solution containing the peptide to be tested was dropped on the front side and the back side of the leaf of tomato (variety name: “Ponte Rosa”). In this condition, incubation was carried out at 25° C. for 2 days. Thereafter, the front and back sides of the leaf were observed by visual inspection.

[3] = system: Colletotrichum destructivum; assay: Colletotrichum destructivum leaf inoculation test (Chinese cabbage leaf); type: in vivo; details: 25° C.; for Leaf inoculation test Chinese cabbage/Colletotrichum destructivum: 4 days, lesions by visual inspection; for lesion of Colletotrichum destructivum (in words): 4 days (FIG. 3)
From the text: In the present example, a suspension comprising Colletotrichum destructivum and a peptide to be tested was dropped on a plant leaf, and lesions were then observed by visual inspection to evaluate the antimicrobial activity of the tested peptide. First, the pores of Colletotrichum destructivum were suspended in water to result in a spore concentration of 5×10^5 spores/ml, so as to prepare a water suspension of spores. Subsequently, peptides to be tested (TsORF18 (full length), TsORF18-40 a.a., and TsORF18-2) were each added to the water suspension of spores, so that the final concentration of the peptides to be tested became 0 μM, 1 μM, 10 μM or 100 μM. Thereafter, 10 μl each of the water suspension of spores containing the peptide to be tested was dropped on the front side and the back side of the leaf of Chinese cabbage (variety name: “Kigokoro 85”). In this condition, incubation was carried out at 25° C. for 4 days. Thereafter, the front and back sides of the leaf were observed by visual inspection.

[4] = system: plant pathogenic filamentous fungi; type: cell-based; details: summary of Table 3
Botrytis cinerea [5] = type: cell-based; details: for Plate antimicrobial activity test Botrytis cinerea (level): 25° C., 1 day or 2 days
[6] = system: Colletotrichum destructivum; type: cell-based; details: for Plate antimicrobial activity test Colletotrichum destructivum (level): 25° C., 1 day or 2 days
Ralstonia solanacearum = details: peptide 100 μM, 28° C. a whole day and night; for Inhibitory rate Ralstonia solanacearum: relative to water; for OD600 Ralstonia solanacearum: water control 2.6
[7] = system: Erwinia carotovora subsp. carotovora
[8] = system: Xanthomonas oryzae pv. oryzae; details: for Inhibitory rate Xanthomonas oryzae pv. oryzae / OD600 Xanthomonas oryzae pv. oryzae: peptide 100 μM, 28° C. a whole day and night; for Inhibitory rate Xanthomonas oryzae pv. oryzae: relative to water; for OD600 Xanthomonas oryzae pv. oryzae: water control 2.1
[9] = system: Pseudomonas syringae pv. tomato
[10] = plate test, microscopic observation (FIG. 1), concentration not given

Molecule | Plate antimicrobial activity test Pyricularia oryzae (level) (Pyricularia oryzae; peptide 1 μM) | Plate antimicrobial activity test Pyricularia oryzae (level) (Pyricularia oryzae; peptide 10 μM) | Plate antimicrobial activity test Pyricularia oryzae (level) (Pyricularia oryzae; peptide 100 μM) | Plate antimicrobial activity test Fusarium oxysporum (level) (Fusarium oxysporum) | Plate antimicrobial activity test Collectotrichum orbiculare (level) ([1]; peptide 1 μM) | Plate antimicrobial activity test Collectotrichum orbiculare (level) ([1]; peptide 10 μM) | Plate antimicrobial activity test Collectotrichum orbiculare (level) ([1]; peptide 100 μM) | Leaf inoculation test Tomato/Botrytis cinerea (Botrytis cinerea [2]; tomato leaf, 25° C.) | Leaf inoculation test Chinese cabbage/Colletotrichum destructivum ([3]; peptide 10 μM) | Leaf inoculation test Chinese cabbage/Colletotrichum destructivum ([3]; peptide 100 μM) | Plate antimicrobial activity test Botrytis cinerea (level) (Botrytis cinerea [5]; peptide 1 μM) | Plate antimicrobial activity test Botrytis cinerea (level) (Botrytis cinerea [5]; peptide 10 μM) | Plate antimicrobial activity test Botrytis cinerea (level) (Botrytis cinerea [5]; peptide 100 μM) | Plate antimicrobial activity test Colletotrichum destructivum (level) ([6]; peptide 1 μM) | Plate antimicrobial activity test Colletotrichum destructivum (level) ([6]; peptide 10 μM) | Plate antimicrobial activity test Colletotrichum destructivum (level) ([6]; peptide 100 μM) | Inhibitory rate Ralstonia solanacearum (Ralstonia solanacearum) | OD600 Ralstonia solanacearum (Ralstonia solanacearum) | OD600 Erwinia carotovora subsp. cartovora [7] | Inhibitory rate Xanthomonas oryzae pv. oryzae [8] | other results
TRKFWRIW (listed as Solanum lycopersicum) [TsORF18-2-8aa-11] | 0 | 0 | 0 | 3 and 0 | 0 | 0 | 3 | ∘ | ∘ | ∘ | 0 | 0 | 3 | 0 | 0 | 3 |  |  |  |  | germination inhibitory activity against plant pathogenic filamentous fungi (in words) [4]: extremely excellent germination inhibitory activity
YYGFPAFSERTRKFWRIWKGKT [TsORF18-2] | 0 | 0 | 3 | 3 and 1 and 0 | 0 | 1 | 3 | ∘ | ∘ | ∘ | 1 | 3 | 3 | 0 | 2 | 3 | 13.8% | 2.2 | 2.6 | 90.1% | inhibition of germination of Pyricularia oryzae (in words) (Pyricularia oryzae; [10]): completely inhibited; also recorded: could inhibit germination; inhibition of germination of Fusarium oxysporum (in words) (Fusarium oxysporum): completely inhibited; also recorded: could inhibit germination; inhibition of germination of Colletotrichum orbiculare (in words) [1, 10]: completely inhibited; also recorded: could inhibit germination; lesion of Botrytis cinerea (in words) (Botrytis cinerea [2]; 100 μM, tomato leaf, 25° C., 2 days (FIG. 2)): not observed; Inhibitory rate Erwinia carotovora subsp. cartovora ([7]; 100 μM): −39.2%; lesion of Colletotrichum destructivum (in words) ([3]; any concentration of 1 μM, 10 μM or 100 μM): not observed; Leaf inoculation test Chinese cabbage/Colletotrichum destructivum ([3]; peptide 1 μM): ∘; OD600 Xanthomonas oryzae pv. oryzae [8]: 0.2; inhibition of growth of Xanthomonas oryzae pv. oryzae (in words) ([8]; summary of Table 4, 100 μM): could inhibit the growth; inhibition of germination of Botrytis cinerea (in words) (Botrytis cinerea [5]; [10]): completely inhibited; also recorded: could inhibit germination; inhibition of germination of Colletotrichum destructivum (in words) [6, 10]: completely inhibited; also recorded: could inhibit germination; OD600 Pseudomonas syringae pv. tomato [9]: 1.9; Inhibitory rate Pseudomonas syringae pv. tomato ([9]; 100 μM): 25.3%; inhibition of growth of Pseudomonas syringae pv. tomato (in words) ([9]; 100 μM): could inhibit the growth
KFWRIWKG (listed as Solanum lycopersicum) [TsORF18-2-8aa-13] | 0 | 0 | 0 | 3 and 2 and 0 | 0 | 0 | 3 | ∘ | ∘ | ∘ | 0 | 0 | 3 | 0 | 0 | 3 |  |  |  |  | germination inhibitory activity against plant pathogenic filamentous fungi (in words) [4]: extremely excellent germination inhibitory activity
ILLSLEIFERKFSRSVWYYGFPAFSERTRKFWRIWKGKTS [TsORF18-40aa] |  |  |  | 3 and 0 |  |  |  |  | ∘ | ∘ | 0 | 0 | 3 | 0 | 0 | 3 | −7.7% | 2.8 | 2.2 | −5.8% | inhibitory effects against Botrytis cinerea (in words) (Botrytis cinerea [2]): not observed; Inhibitory rate Erwinia carotovora subsp. cartovora ([7]; 100 μM): −18.1%; lesion of Colletotrichum destructivum (in words) ([3]; concentration of 10 μM or 100 μM): not observed; Leaf inoculation test Chinese cabbage/Colletotrichum destructivum ([3]; peptide 1 μM): Δ; OD600 Xanthomonas oryzae pv. oryzae [8]: 2.2; OD600 Pseudomonas syringae pv. tomato [9]: 1.9; Inhibitory rate Pseudomonas syringae pv. tomato ([9]; 100 μM): 25.8%
B1 |  |  |  | 0 |  |  |  |  |  |  | 0 | 0 | 0 | 0 | 0 | 1 | −0.9% | 2.6 | 1.9 | 6.5% | inhibitory effects against Botrytis cinerea (in words) (Botrytis cinerea [2]): not observed; Inhibitory rate Erwinia carotovora subsp. cartovora [7]: −3.7%; OD600 Xanthomonas oryzae pv. oryzae [8]: 2.0; Inhibitory rate Pseudomonas syringae pv. tomato [9]: −3.1%; OD600 Pseudomonas syringae pv. tomato [9]: 2.6
